In US20210251975A1, “USE OF CICLOPIROX FOR INHIBITING HBV CORE ASSEMBLY” (GWANGJU INSTITUTE OF SCIENCE AND TECHNOLOGY, priority 2018, published 2021):

Legend:
HBV [1] = test: HBV DNA released out of or remaining in cells at ciclopirox concentration gradient; format: cell-based, Hepatitis B virus (HBV); settings: HBV-expressing (HepG2.2.15) and HBV-overexpressing cell lines, 6 days, increasing concentration
Text: Specifically, A and B in FIG. 5 show a result of treating HepG2.2.15 cells and HBV-expressing liver cells with ciclopirox for 6 days and investigating the decrease of HBV DNA at different concentration gradients. C and D FIG. 5 show a result of investigating the inhibitory effect of ciclopirox by extracting HBV DNA from the cells rather than the DNA secreted out of the cells. Specifically, after lysing HepG2.2.15 cells and HBV-expressing liver cells and removing […] using micrococcal nuclease, virus DNA was extracted and its expression level was investigated. As a result, it was confirmed that HBV DNA was decreased according to the concentration gradient of ciclopirox.
(§1) After treating cells with drugs such as ciclopirox, entecavir, and/or tenofovir, the supernatant of the cells was collected. After adding to 30 μL of the supernatant 1×PBS of the same volume, 6 μL of 1 N NaOH was added. After incubation at 37° C. for 1 hour, 6 μL of Tris-HCl/HCl was added. Then, the protein was denatured by heat-treating at 98° C. for 5 minutes. After removing the denatured protein through centrifugation, the virus existing in the supernatant was quantified by real-time PCR.
After treating cells with drugs such as ciclopirox, entecavir, and/or tenofovir, the cells were washed with 1×PBS. Then, after lysing the cells and treating with nuclease, HBV DNA was extracted from the cells. […]

HBsAg protein = test: Secreted HBsAg protein by ELISA in HBV-expressing and HBV-overexpressing cell lines; format: cell-based, Hepatitis B virus (HBV); settings: ciclopirox concentration gradient
Method: (§2) Results were expressed as mean±standard deviation and tested by the Student's t-test. *: p<0.05, ** p<0.01.
The secreted HBsAg protein of HBV was analyzed by enzyme-linked immunosorbent assay. Specifically, HBsAg-specific ELISA was used. A supernatant collected from the cells treated with each drug was analyzed using a kit (hepatitis B surface antigen Ab ELISA kit) according to the instruction of the manufacturer (Abnova).

HBV core protein [2] = test: Structural analysis (crystals) of ciclopirox binding site of HBV core protein and Y118 mutation; design: species or system Hepatitis B virus (HBV)
Method: The secondary structure of the protein was computed using STRIDE. […] E and F in FIG. 3 show the ciclopirox-bound and ciclopirox-free sites of chains B and C.
Therefore, the ciclopirox binding site of the HBV core protein was investigated. Specifically, structural analysis of the core protein was conducted by forming crystals.

HBV [3] = test: HBV-expressing mouse (hydrodynamic injection of pAAV HBV 1.2x plasmid); format: in vivo
Method: Specifically, after expressing HBV in mouse by injecting using a hydrodynamic injection method an HBV-expressing pAAV HBV 1.2× plasmid into the mouse tail, the drug was treated every day for 5 days.
Specifically, HBV was produced in vivo by hydrodynamically injecting an HBV-expressing plasmid into mouse tail. Then, after treating with ciclopirox alone, tenofovir alone, or a combination of ciclopirox and tenofovir every day for 5 days, the degree of proliferation of HBV in mouse serum was investigated. The experimental procedure is schematically illustrated in A in FIG. 8.

HBV [4] = test: HBV infection system in NTCP-HepG2 and NTCP-Huh7 cells; format: cell-based, Hepatitis B virus (HBV); settings: NTCP-HepG2 and NTCP-Huh7, 14 days, concentration gradient
Method: Specifically, after treating HepG2 and Huh7 cell lines which express a receptor (NTCP) essential for HBV infection with ciclopirox for 6 hours, the supernatant of HepG2.2.15 cells were treated with ciclopirox. 16 hours later, after viral washing, followed by treating with ciclopirox every day for 14 days, the cells and cell supernatant were collected and analyzed. B and C in FIG. 6 show a result of investigating the expression of NTCP in the NTCP cell lines by immunoblot and flow cytometry. D to F in FIG. 6 show the HBV-inhibiting effect of ciclopirox in the virus infection system.
In addition, after treating HBV-infected liver cancer cell lines NTCP-HepG2 and NTCP-Huh7 with ciclopirox, the degree of HBV proliferation was analyzed. After pretreating the liver cancer cell lines with ciclopirox for 6 hours, the cells were incubated with ciclopirox and HBV for 16 hours. Then, the cells were analyzed after culturing for 14 days. This experimental procedure is schematically illustrated in A in FIG. 6. As shown in B and C in FIG. 6, the NTCP protein expressed from the liver cancer cells NTCP-HepG2 and NTCP-Huh7 was analyzed by immunoblot and flow cytometry.

HBV core protein [5] = test: Core assembly in core protein-expressing and entire HBV protein-expressing cell lines
Method: Specifically, the isolated Cp149 dimeric protein was incubated with a core assembly reaction buffer (150 mM NaCl, 15 mM HEPES) and the drug at 37° C. for 1 hour. Then, after separating the protein on agarose gel, immunoblot was conducted using a rabbit polyclonal anti-HBV core antibody. In addition, for isolation of the core expressed in the cells, the cells were lysed with 1% NP-40 and ultracentrifuged (55,000 rpm) at 20° C. for 8 hours. The assembled core that settled down at the bottom was separated on agarose gel and then immunoblot was conducted using a rabbit polyclonal anti-HBV core antibody.

HBV [6] = test: Combination treatment of ciclopirox with entecavir or tenofovir in liver cancer cell lines; format: cell-based, Hepatitis B virus (HBV); settings: ciclopirox alone or plus 1 mM ETV or 1 mM TDF
Method: After treating with ciclopirox according to a concentration gradient, 1 mM ETV or 1 mM TDF was treated in combination.
After treating cells with drugs such as ciclopirox, entecavir, and/or tenofovir, the cells were washed with 1×PBS. Then, after lysing the cells and treating with nuclease, HBV DNA was extracted from the cells. The DNA was extracted according to the instruction of the manufacturer (InvivoGen).

HBV [7] = test: Screening of FDA-approved drug library: quantity of released HBV DNA from HepG2.2.15 cells; format: cell-based, Hepatitis B virus (HBV); settings: treated for 6 days
Method: as §1
For screening of a drug having inhibitory activity against HBV, an FDA-approved drug library with proven safety was used.
Specifically, after treating HBV-producing HepG2.2.15 cells with about 1,000 drugs at 1 mM every day for 3 days, the quantity of released HBV DNA was measured. After treating the cells with 19 drugs selected through the first screening for 6 days according to the same method, 13 drugs were selected by measuring HBV DNA (second screening). Entecavir, which is used as an HBV drug, was used as a positive control group.

[8] = test system: core protein 149 (CP149) dimers; test: Core assembly reaction of purified core protein 149 (CP149) dimers, incl. sucrose gradient ultracentrifugation and electron microscopy; format: biochemical, Hepatitis B virus (HBV)
Text: In addition, in order to investigate whether the core assembly is inhibited and the protein remains as dimers, reaction products were separated through ultracentrifugation at different sucrose concentrations after the assembly of CP149 under the assembly reaction conditions.

[9] = molecular target: T1, HBV core and capsid proteins (Hepatitis B virus genotype D subtype ayw, UniProt P03146); test: Expression of core and capsid proteins (immunoblot) for the 19 screened drugs; format: cell-based; settings: D in FIG. 1
T1 construct: expressed in transfected cells; host or cells: HepG2.2.15
Text: as §2
It was identified to be ciclopirox.

[10] = sucrose gradient 10% to 50%, ultracentrifugation, treated vs not treated

T1 sequence (P03146 whole entry): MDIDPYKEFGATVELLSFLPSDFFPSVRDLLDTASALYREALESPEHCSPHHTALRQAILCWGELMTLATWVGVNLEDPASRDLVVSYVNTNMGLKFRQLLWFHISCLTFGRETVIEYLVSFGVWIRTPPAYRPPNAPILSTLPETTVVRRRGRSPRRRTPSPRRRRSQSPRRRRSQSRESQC

Q: Which results are given for `Cc1cc(C2CCCCC2)n(O)c(=O)c1` [ciclopirox]?
A: quantity of HBV DNA released out of cells (HBV [1]): decreased; quantity of HBV DNA remaining in cells (HBV [1]): decreased; amount of the released HBsAg protein (HBsAg protein): no effect; inhibition of core assembly with core protein mutated at Y118 (HBV core protein [2]; D in FIG. 3): mutation at Y118 reduces inhibition of core assembly; binding to the HBV core protein (HBV core protein [2]; crystal structure, hexameric core protein, hydrogen bonding at tyrosine 118): binding directly to the HBV core protein; HBV DNA 5 days after the treatment (HBV [3]; ciclopirox alone): almost nonexistent; amount of HBV DNA in blood (HBV [3]; treated every day for 5 days): remarkably reduces; amount of the HBsAg protein in blood (HBV [3]; treated every day for 5 days): no significant difference; quantity of the HBV core protein in liver cells (HBV [3]; treated every day for 5 days): reduced; HBV DNA released out of the cells (HBV [4]): decrease; HBV cccDNA remaining in the cells (HBV [4]): decrease; HBV rcDNA remaining in the cells (HBV [4]): decrease; core assembly in each cell line (HBV core protein [5]): inhibited according to the concentration gradient; quantity of the HBsAg protein secreted out of the cells (HBV [6]): No HBsAg-inhibiting effect; inhibition of released HBV DNA (second screening) (HBV [7]): consistent effects; morphology of the assembled core (electron microscopic images) ([8]; E in FIG. 2): the size of the assembled core is enlarged by ciclopirox and the circular shape is destroyed; assembly of the purified core protein 149 (CP149) dimers ([8]; assembly reaction buffer, 37° C., 1 hour, immunoblot): inhibited as the concentration of ciclopirox increased; core-assembled CP149 (fractions 5-8) [8, 10]: decreased; dimeric CP149 (fractions 1-3) [8, 10]: increased; expression of the capsid protein [9]: remarkably inhibited; expression of the core protein [9]: without affecting
